What was measured:
Type in all cases: in vivo
ABUTH [1] = experiment: Post-emergence Test, ABUTH; details: sprayed after 8 days cultivation, 1000 g/ha, evaluated after 13 days
ZEAMX [2] = experiment: Post-emergence Test, ZEAMX; details: sprayed after 8 days cultivation, 1000 g/ha, evaluated after 13 days
ZEAMX [3] = experiment: Pre-emergence Test, ZEAMX; details: 1000 g/ha, evaluated after 13 days
Lolium perenne (LOLPE) [4] = experiment: Pre-emergence Test, LOLPE; details: 1000 g/ha, evaluated after 13 days
Lolium perenne (LOLPE) [5] = experiment: Post-emergence Test, LOLPE; details: sprayed after 8 days cultivation, 1000 g/ha, evaluated after 13 days
Experimental: (§1) Seeds of a variety of test species are sown in standard soil in pots (Amaranthus retoflexus (AMARE), Solarium nigrum (SOLNI), Setaria faberi (SETFA), Lolium perenne (LOLPE), Echinochloa crus-galli (ECHCG), Ipornoea hederacea (IPOHE)). After 8 days cultivation under controlled conditions in a glasshouse (at 24° C./16° C., day/night; 14 hours light; 65% humidity), the plants are sprayed with an aqueous spray solution derived from the formulation of the technical active ingredient in acetone/water (50:50) solution containing 0.5% Tween 20 (polyoxyethylene sorbitan monolaurate, CAS RN 9005-64-5). Compounds are applied at 1000 g/ha unless otherwise stated. The test plants are then grown in a glasshouse under controlled conditions in a glasshouse (at 24° C./16° C., day/night; 14 hours light; 65% humidity) and watered twice daily. After 13 days the test is evaluated for the percentage damage caused to the plant. The biological activities are shown in the following table on a five-point scale (5=81-100%; 4=61-80%; 3=41-60%; 2=21-40%; 1=10-20%; 0=0%; −=not tested).

[6] = test system: Ipornoea hederacea (IPOHE); experiment: Pre-emergence Test, IPOHE; details: 1000 g/ha, evaluated after 13 days
[7] = test system: Echinochloa crus-galli (ECHCG); experiment: Post-emergence Test, ECHCG; details: sprayed after 8 days cultivation, 1000 g/ha, evaluated after 13 days
In short: (§2)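 Pots sown with AMARE, SOLNI, SETFA, LOLPE, ECHCG, IPOHE, kept in glasshouse (24/16 °C, 14 h light, 65% humidity), sprayed at 1000 g/ha unless stated, in acetone/water 50:50 with 0.5% Tween 20. Damage scored after 13 days on a 0–5 scale (5=81–100%, 0=0%).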

[8] = test system: Ipornoea hederacea (IPOHE); experiment: Post-emergence Test, IPOHE; details: sprayed after 8 days cultivation, 1000 g/ha, evaluated after 13 days
In short: as §2

Solarium nigrum (SOLNI) [9] = experiment: Pre-emergence Test, SOLNI; details: 1000 g/ha, evaluated after 13 days
[10] = test system: Echinochloa crus-galli (ECHCG); experiment: Pre-emergence Test, ECHCG; details: 1000 g/ha, evaluated after 13 days
Setaria faberi (SETFA) [11] = experiment: Post-emergence Test, SETFA; details: sprayed after 8 days cultivation, 1000 g/ha, evaluated after 13 days
In short: as §2

Solarium nigrum (SOLNI) [12] = experiment: Post-emergence Test, SOLNI; details: sprayed after 8 days cultivation, 1000 g/ha, evaluated after 13 days
Experimental: as §1

ABUTH [13] = experiment: Pre-emergence Test, ABUTH; details: 1000 g/ha, evaluated after 13 days
[14] = test system: Amaranthus retoflexus (AMARE); experiment: Post-emergence Test, AMARE; details: sprayed after 8 days cultivation, 1000 g/ha, evaluated after 13 days
In short: as §2

[15] = test system: Amaranthus retoflexus (AMARE); experiment: Pre-emergence Test, AMARE; details: 1000 g/ha, evaluated after 13 days
Setaria faberi (SETFA) [16] = experiment: Pre-emergence Test, SETFA; details: 1000 g/ha, evaluated after 13 days

Compound	percentage damage caused to the plant, ABUTH (ABUTH [1])	percentage damage caused to the plant, ZEAMX (ZEAMX [2])	percentage damage caused to the plant, ZEAMX (ZEAMX [3])	percentage damage caused to the plant, LOLPE (Lolium perenne (LOLPE) [4])	percentage damage caused to the plant, LOLPE (Lolium perenne (LOLPE) [5])	percentage damage caused to the plant, IPOHE [6]	percentage damage caused to the plant, ECHCG [7]	percentage damage caused to the plant, IPOHE [8]	percentage damage caused to the plant, SOLNI (Solarium nigrum (SOLNI) [9])	percentage damage caused to the plant, ECHCG [10]	percentage damage caused to the plant, SETFA (Setaria faberi (SETFA) [11])	percentage damage caused to the plant, SOLNI (Solarium nigrum (SOLNI) [12])	percentage damage caused to the plant, ABUTH (ABUTH [13])	percentage damage caused to the plant, AMARE [14]	percentage damage caused to the plant, AMARE [15]	percentage damage caused to the plant, SETFA (Setaria faberi (SETFA) [16])
N#Cc1cccc2c1c(=O)c(C(=O)O)nn2-c1ccc(OC(F)(F)F)cc1 [Compound P8, 5-cyano-4-oxo-1-[4-(trifluoromethoxy)phenyl] cinnoline-3-carboxylic acid]	1 (1=10-20%)	2 (2=21-40%)	0 (0=0%)	4 (4=61-80%)	4 (4=61-80%)	1 (1=10-20%)	4 (4=61-80%)	4 (4=61-80%)	1 (1=10-20%)	5 (5=81-100%)	4 (4=61-80%)	3 (3=41-60%)	1 (1=10-20%)	4 (4=61-80%)	2 (2=21-40%)	5 (5=81-100%)
COC(=O)c1nn(-c2ccc(OC(F)(F)F)cc2)c2cccc(C(C)=O)c2c1=O [Compound P9, methyl 5-acetyl-4-oxo-1-[4-(trifluoromethoxy)phenyl] cinnoline-3-carboxylate]	3 (3=41-60%)	4 (4=61-80%)	4 (4=61-80%)	4 (4=61-80%)	4 (4=61-80%)	3 (3=41-60%)	4 (4=61-80%)	2 (2=21-40%)	3 (3=41-60%)	5 (5=81-100%)	4 (4=61-80%)	4 (4=61-80%)	3 (3=41-60%)	1 (1=10-20%)	1 (1=10-20%)	5 (5=81-100%)
CO/N=C(\C)c1cccc2c1c(=O)c(C(=O)O)nn2-c1ccc(OC(F)(F)F)cc1 [Compound P2, 5-[(E)-N-methoxy-C-methyl-carbonimidoyl]-4-oxo-1-[4-(trifluoromethoxy)phenyl] cinnoline-3-carboxylic acid]	4 (4=61-80%)	3 (3=41-60%)	4 (4=61-80%)	4 (4=61-80%)	3 (3=41-60%)	2 (2=21-40%)	4 (4=61-80%)	3 (3=41-60%)	2 (2=21-40%)	5 (5=81-100%)	4 (4=61-80%)	2 (2=21-40%)	3 (3=41-60%)	1 (1=10-20%)	0 (0=0%)	5 (5=81-100%)
C=C(OCC)c1cccc2c1c(=O)c(C(=O)OC)nn2-c1ccc(OC(F)(F)F)cc1 [Compound P3, methyl 5-(1-ethoxyvinyl)-4-oxo-1-[4-(trifluoromethoxy)phenyl] cinnoline-3-carboxylate]	3 (3=41-60%)	3 (3=41-60%)	4 (4=61-80%)	4 (4=61-80%)	4 (4=61-80%)	2 (2=21-40%)	4 (4=61-80%)	3 (3=41-60%)	2 (2=21-40%)	4 (4=61-80%)	4 (4=61-80%)	4 (4=61-80%)	3 (3=41-60%)	1 (1=10-20%)	0 (0=0%)	5 (5=81-100%)
